In PMC12129716, “Isolation of a Unique Monoterpene Diperoxy Dimer From Ziziphora clinopodioides subsp. bungeana Together With Triterpenes With Antidiabetic Properties” (Phytochemical Analysis, 2025):
Entries after “also recorded” stand apart in the source; their conditions may differ. Like-named read-outs stand apart in the source and are kept apart here.

Assays:
α‐glucosidase [1] = assay: α-Glucosidase inhibitory assay (p-nitrophenyl-α-D-glucopyranoside, microplate reader); assay type: biochemical; settings: mean ± SEM, three independent experiments in triplicate
Protocol: After incubation (15 min, 37°C), the reaction was initiated by adding 20 μL of 2.5‐mM p‐nitrophenyl‐α‐D‐glucopyranoside. After an additional 15 min at 37°C, the reaction was stopped with 80 μL of 0.2‐M Na2CO3. The released p‐nitrophenol was quantified spectrophotometrically at λ 405 nm using a microplate reader. One set of mixtures prepared with an equivalent volume of methanol instead of the test samples was used as a control. Another set of mixtures prepared with an equivalent volume of phosphate buffer instead of the enzyme was used as a blank. The inhibition of the enzyme (%) was calculated according to the formula: […]. […] The results are summarized in Table 2 and expressed as the mean ± SEM for three independent experiments measured in triplicate.

α‐glucosidase [2] = settings: cited from earlier work
[3] = target: protein tyrosine phosphatase 1B (PTP1B); settings: cited from earlier work
GLUT4 [4] = assay: GLUT4 translocation to plasma membrane fraction in C2C12 myotubes (Western blot); assay type: cell-based, mouse; settings: 5 μM, 24 h, C2C12 differentiated myotubes, vs DMSO control
Protocol: The C2C12 cell line was incubated in containers with a surface area of 75 cm^2 (tissue‐culture treated) to 100% confluence in full serum DMEM High Glucose medium. Then the culture medium was changed to DMEM High Glucose medium, supplemented with antibiotics, and 2% horse serum (Biosera) to start the differentiation of myoblasts into myocytes. The medium was renewed every 2 days, and the formation of myocytes was observed using a microscope. After 6 days of differentiation, the culture medium was changed to DMEM High Glucose serum‐free medium, and the test compounds were added at a non‐toxic concentration of 5 μM dissolved in DMSO. The effect of the test compounds on the viability of C2C12 myocytes was determined using a WST‐1 kit (Roche, Basel, Switzerland), according to the manufacturer's manual. The final concentration of DMSO in the medium was 0.1% (v/v). […]
The effects of the test compounds on the protein expression of GLUT4 in the total cellular fraction and on GLUT4 translocation to the plasma membrane fraction were measured using PAGE and Western blot with specific antibodies. […]
To quantify the effects of the test compounds on GLUT4 expression and translocation, the optical densities (OD) of the corresponding bands shown by Western blot analysis were calculated and expressed as a ratio of ODGLUT4 / ODβ‐actin for GLUT4 expression in whole‐cell lysates. […]

L6 myotube cells = tested on: L6 myotube cells; design: method as in PMID 19548274; settings: cited from earlier work
GLUT4 [5] = tested on: GLUT4; design: method as in PMID 17201692; settings: 3T3-L1 adipocytes; cited from earlier work

## C[C@@H]1CC[C@]2(C(=O)O)CC[C@]3(C)C(=CC(=O)C4[C@@]5(C)CC[C@H](O)C(C)(C)C5CC[C@]43C)C2[C@H]1C (some centres unmarked) [Compound 7, 11‐oxoursolic acid]
α‐glucosidase [1]
  IC50: 163 ± 15.4 µM

## CC1(C)CC[C@]2(C(=O)O)CC[C@]3(C)C(=CC[C@@H]4[C@@]5(C)CC[C@H](O)C(C)(C)[C@@H]5CC[C@]43C)[C@@H]2C1 [Compound 10, oleanolic acid]
α‐glucosidase [1]
  % of inhibition (200 μM): 67.5 ± 1.4%

## C=C(C)[C@@H]1CC[C@]2(CO)CC[C@]3(C)[C@H](CC[C@@H]4[C@@]5(C)CC[C@H](O)C(C)(C)[C@@H]5CC[C@]43C)[C@@H]12 [Compound 3, betulin]
α‐glucosidase [1]
  % of inhibition (200 μM): 24.0 ± 6.0%
  IC50: > 200 µM

## CC1(C)CC[C@]2(C(=O)O)CC[C@]3(C)C(=CC(=O)C4[C@@]5(C)CC[C@H](O)C(C)(C)C5CC[C@]43C)C2C1 (some centres unmarked) [Compound 8, 11‐oxooleanolic acid]
α‐glucosidase [1]
  % of inhibition (200 μM): 49.9 ± 3.3%
  IC50: > 200 µM

## CC1(C)[C@@H](O)CC[C@]2(C)[C@H]3C(=O)C=C4[C@@H]5C[C@@](C)(C(=O)O)CC[C@]5(C)CC[C@@]4(C)[C@]3(C)CC[C@@H]12 [glycyrrhetic acid]
α‐glucosidase [2]
  α-Glucosidase inhibitory activity: inactive

## C=C(CO)[C@@H]1CC[C@]2(C(=O)O)CC[C@]3(C)C(CCC4[C@@]5(C)CC[C@H](O)C(C)(C)C5CC[C@]43C)C12 (some centres unmarked) [Compound 4, 30‐hydroxybetulinic acid]
α‐glucosidase [1]
  % of inhibition (200 μM): 34.0 ± 4.9%
  IC50: > 200 µM

## C=C(C)[C@@H]1CC[C@]2(C(=O)O)CC[C@]3(C)[C@H](CC[C@@H]4[C@@]5(C)CC[C@H](O)C(C)(C)[C@@H]5CC[C@]43C)[C@@H]12 [Compound 11, betulinic acid]
[3]
  PTP1B IC50: 0.7 ± 0.03 µg/mL
[3]; conversion of the μg/mL value, read-out: PTP1B IC50 (converted to μM)
  IC50: 1.53 µM
GLUT4 [4]
  GLUT4 translocation (GLUT4/ATPA1 ratio in plasma membrane fraction): no activity
α‐glucosidase [1]
  % of inhibition (200 μM): 64.4 ± 2.0%
  IC50: 45.3 ± 1 µM

## C[C@H]1[C@H](C)CC[C@]2(C(=O)O)CC[C@]3(C)C(=CC[C@@H]4[C@@]5(C)CC[C@H](O)C(C)(C)[C@@H]5CC[C@]43C)[C@H]12 [Compound 9, ursolic acid]
[3]; read-out: PTP1B IC50
  IC50: 3.1 ± 0.2 µM
L6 myotube cells
  2-deoxy-D-[3H]-glucose uptake increase: 1.84 fold
GLUT4 [5]
  Translocation of GLUT4: enhanced
α‐glucosidase [1]
  % of inhibition (200 μM): 65.7 ± 4.1%

## C[C@@H]1[C@H](O)C[C@]2(C(=O)O)CC[C@]3(C)C(=CCC4[C@@]5(C)CC[C@H](O)C(C)(C)C5CC[C@]43C)C2[C@H]1C (stereo partly drawn) [Compound 6, 21α‐hydroxyursolic acid]
α‐glucosidase [1]
  % of inhibition (200 μM): 26.8 ± 2.1%
  IC50: > 200 µM

## CC1=C2C=C3CCC4C(C)(C)CCC[C@@]4(C)C3CC2OC1=O (some centres unmarked) [Compound 2, jolkinolide E]
α‐glucosidase [1]
  % of inhibition (200 μM): 25.0 ± 1.4%
  IC50: > 200 µM

## CC1CC=C(C(C)(C)OOC23CC(C)CC=C2C(C)(C)OO3)C(=O)C1 (centres unmarked) [Compound 1, ziziphora diperoxy dimer]
α‐glucosidase [1]
  % of inhibition (200 μM): 6.0 ± 1.9%
  IC50: > 200 µM

## C[C@@H]1CC[C@]2(C(=O)O)CC[C@]3(C)C(=CC[C@@H]4[C@@]5(C)CC[C@H](O)C(C)(C)[C@@H]5CC[C@]43C)[C@@H]2[C@]1(C)O [Compound 5, pomolic acid]
[3]; read-out: PTP1B IC50
  IC50: 3.9 ± 0.8 µM
L6 myotube cells
  2-deoxy-D-[3H]-glucose uptake increase: 1.6 fold
GLUT4 [4]
  GLUT4 translocation (GLUT4/ATPA1 ratio in plasma membrane fraction): increased; also recorded: tripling
α‐glucosidase [1]
  % of inhibition (200 μM): 41.9 ± 4.1%
  IC50: > 200 µM
